In patent US20220324909A1, “THERAPEUTIC PEPTIDES” (COHBAR, INC., priority 2019, published 2022):
Non-standard residues stand in square brackets, D forms with d. Primed or numbered codes have the meaning given here. No end group written: not given here. PEG12(3) = not defined here

Experiments:
MDA-MB-231 cells [1] = assay: Cell viability, MTS assay in MDA-MB-231 cells; type: cell-based, human
Procedure: Test compounds and reference compound staurosporine (Selleckchem) were all dissolved with DMSO at 10 mM stock. […] Activity was calculated relative to DMSO control. […] Cell viability was 3% of the DMSO control value for Staurosporine (10 μM).

3T3-L1 adipocytes = assay: Free fatty acid levels in cultured 3T3-L1 mouse adipocytes (Example 4, 25 μM); details: for Free Fatty Acid Levels, Percent of Control Value: peptide 25 μM, 20-22 h then 3 h with isoproterenol 1 nM, relative to isoproterenol control
Procedure: Mouse 3T3-L1 adipocytes were seeded at 3,000 cells per well in 96-well plates in Pre-adipocyte Medium (Zen-Bio, Durham, N.C.) and grown to confluence at 37° C. in a humidified atmosphere of 5% CO2/95% air. Two days after confluence, cells were placed in Adipocyte Differentiation Medium (Zen-Bio, Durham, N.C.) and cultured for three additional days at 37° C. in a humidified atmosphere of 5% CO2/95% air. The culture media was then replaced with Adipocyte Maintenance Medium (Zen-Bio) and the cells maintained for an additional 9-12 days at 37° C. in a humidified atmosphere of 5% CO2/95% air with partial medium replacement every other day. Following 12-15 days' differentiation, test peptides were added to a final concentration of 25 μM and incubated for 20-22 hours in Adipocyte Maintenance Medium. After 20-22 hours, isoproterenol (1 nM) was added to all wells except untreated controls and test peptides were replenished. Cells were incubated for a further 3 hours in Assay Buffer (Zen-Bio). Free fatty acid concentrations in the media were determined using a Free Fatty Acid Assay Kit (Zen-Bio) according to the manufacturer's instructions using a plate reader (540 nm). Absorbance values were corrected for untreated background and expressed relative to isoproterenol treated cells. Treatment with isoproterenol (1 nM) alone was used as the free fatty acid level stimulatory control.

MDA-MB-231 cells [2] = assay: Caspase 3/7 activity in MDA-MB-231 cells (Caspase-Glo 3/7); type: cell-based, human
Procedure: The effect of the peptides on cell death/survival can be assessed using a caspase-3 assay. Peptides were dissolved with DMSO at 10 mM stock. […] Staurosporine (Selleckchem) was dissolved with DMSO at 1 mM stock. Caspase-Glo 3/7 Assay Reagent was purchased from Promega (Madison, Wis.). MDA-MB-231 human breast cancer cell line was purchased from American Type Culture Collection (Manassas, Va.). MDA-MB-231 cells were grown in DMEM Medium supplemented with 10% FBS. 100 μg/ml penicillin and 100 μg/ml streptomycin were added to the culture medium. […] 25 μl of Caspase-Glo 3/7 Assay Reagent was added to each well and incubated at 37° C., 5% CO2 for 1 hour. Luminescence for each sample well on the plate was measured by Envision 2104 Multilabel Reader (PerkinElmer, Santa Clara, Calif.). Activity was calculated relative to DMSO control.

MCF-7 cells = assay: Cell viability, MTS assay in MCF-7 cells
Procedure: Peptides and reference compound staurosporine (Selleckchem) were dissolved with DMSO at 10 mM stock. CellTiter 96@ AQueous One Solution Reagent (MTS assay reagent) was purchased from Promega (Madison, Wis.). MCF-7 human breast cancer cell line was purchased from American Type Culture Collection (Manassas, Va.). MCF-7 cells were grown in EMEM Medium supplemented with 10% FBS and 0.01 mg/ml human recombinant insulin. 100 μg/ml penicillin and 100 μg/ml streptomycin were added to the culture medium. Cells were incubated with test peptides at 10 μM at 37° C. in a humidified atmosphere of 5% CO2 and 95% air for 72 hours. 5 μl of CellTiter 96@ AQueous One Solution Reagent (MTS assay reagent) was added to each well and incubated at 37° C., 5% CO2 for 5 hours. Absorbance at 492 nm was recorded by Envision 2104 Multilabel Reader. Treatment with DMSO alone was used as the cell viability activity control. The relative standard deviation of the DMSO control was 3%.

Male DIO mice = assay: Metabolic parameters in diet induced obese (DIO) mice, Example 20; type: in vivo, mouse; details: N = 8
Procedure: Male C57BL/6 mice were maintained on a high fat diet for 18 weeks to develop diet induced obesity. Animals were randomized to treatment groups based on blood glucose levels and body weight. The peptides of the invention were administered to groups of male DIO mice once or twice daily by intraperitoneal injection at a dose of 5 mg/kg/dose for 8 to 10 days (N=8 animals per treatment group). Additional groups of male DIO mice (n=8) received vehicle (water) alone administered once or twice daily by intraperitoneal injection. Body weight, blood glucose levels and food intake were monitored. Body mass distribution (fat vs lean) was determined by quantitative whole body NMR prior to dosing and at the end of dosing.

3T3-L1 mouse adipocytes [3] = assay: Free fatty acid levels in cultured 3T3-L1 mouse adipocytes and insulin dependence (Example 17); type: cell-based; details: insulin 10 nM, positive control
Procedure: The effect of the peptides on fatty acid metabolism can be assessed using an assay to monitor free fatty acid levels produced by cultured cells such as mouse adipocytes. […] Following 3 h incubation, conditioned medium from each well was transferred to a fresh 96-well plate. […] Absorbance values were expressed as percent control activity relative to 0.1 nM isoproterenol treated cells (no insulin) for 10 μM peptide alone or 0.25 nM insulin treated cells (with insulin) for 10 μM peptide in presence of 0.25 nM insulin. […] Data are presented as averages values from 2-3 independent experiments with each data point performed in triplicate.

3T3-L1 mouse adipocytes [4] = assay: Free fatty acid levels in 3T3-L1 mouse adipocytes (Example 12, 10 μM); type: cell-based; details: insulin 100 nM, positive control
Procedure: The effect of the peptides on fatty acid metabolism can be assessed using an assay of free fatty acid levels in cultured cells such as mouse adipocytes. Peptides were initially prepared as 10 mM stock in DMSO, diluted to 1 mM in H2O, and used at a final concentration of 10 μM (0.1% DMSO). […] Insulin at 100 nM was added to control wells.

H4-IIE cells = assay: Glucose production in cultured H4-IIE cells and insulin dependence; type: cell-based, rat; details: insulin 800 μM, modest inhibitor control
Procedure: The effect of the peptides on glucose homeostasis can be assessed using an assay to monitor glucose production by cultured cells such as rat hepatocytes. […] Following 24 h incubation, conditioned medium from each well was transferred to a fresh 96-well plate. Glucose concentrations in the medium were determined using a Glucose Assay kit (Abcam; Cambridge, Mass.) according to the manufacturer's instructions; absorbance measured using a Cytation 3 plate reader at 570 nm (BioTek, Winooski, Vt.). […] Untreated cells were used as reference for maximal glucose production. […] Insulin at 800 μM was used as a modest inhibitor glucose production. […] Data are presented as averages values from 2-4 independent experiments with each data point performed in triplicate.

C2C12 cells [5] = assay: Caspase 3/7 activity in C2C12 cells; type: cell-based, mouse; details: staurosporine 100 nM, positive control
Procedure: The effect of the peptides on cell death/survival can be assessed using a caspase-3/7 assay in cultured cells such as mouse myoblast cells. Peptides were initially prepared as 10 mM stock in DMSO, diluted to 1 mM in H2O, and used at a final concentration of 10 μM (0.1% DMSO). […] Staurosporine (Abcam, Cambridge, Mass.) was dissolved at 10 mM in DMSO as a stock solution. Caspase-Glo 3/7 Assay Reagent was purchased from Promega (Madison, Wis.). C2C12 cell line was purchased from American Type Culture Collection (Manassas, Va.). C2C12 cells were grown in DMEM supplemented with 20% FBS with 100 IU/ml penicillin and 100 μg/ml streptomycin. […] C2C12 cells were seeded at 4,000 cells per well on 96-well plates. […] Caspase 3/7 activity was determined using a Caspase-Glo 3/7 Assay kit according to the manufacturer's instructions. Luminescence for each sample well on the plate was measured using a Cytation 3 plate reader (BioTek, Winooski, Vt.). Activity was calculated relative to 0.1% DMSO control.

C2C12 cells [6] = assay: Cellular ROS levels induced by TBHP in C2C12 cells (DCFDA); type: cell-based, mouse; details: sulforaphane 10 μM, protective control
Procedure: The protective or synergistic effect of the peptides on cellular levels of reactive oxygen species (ROS) induced by oxidative stress can be assessed using an assay of ROS in cultured cells such as mouse myoblasts exposed to a suitable oxidative stress. Peptides were initially prepared as 10 mM stock in DMSO, diluted to 1 mM in H2O, and added at a final concentration of 10 μM (0.1% DMSO). […] TBHP was used at final concentration of 100 μM. Sulforaphane at final concentration of 10 μM was used as a protective control against TBHP induced ROS production. […] C2C12 cells were grown in DMEM supplemented with 20% FBS with 100 IU/ml penicillin and 100 μg/ml streptomycin. […] C2C12 cells were seeded at 7,500 cells per well on 96-well plates. […] After 18-20 hours of incubation the cells were loaded with DCFDA for 45 min. TBHP at 100 μM was then added to the appropriate wells for 1 hour. ROS activity was determined using a DCFDA Cellular ROS Detection Assay kit (Abcam, Cambridge, Mass.) according to the manufacturer's instructions. Fluorescence in each sample well on the plate was measured using a Cytation 3 plate reader at Ex/Em=485/535 nm (BioTek, Winooski, Vt.). Activity was calculated relative to TBHP control. The relative standard deviation of the sulforaphane control was <20%. The ROS level produced by the sulforaphane control in the presence of TBHP was 52% of the TBHP control.

C2C12 cells [7] = assay: ATP levels in cultured C2C12 cells (CellTiter-Glo); type: cell-based, mouse; details: lovastatin 10 μM, positive control
Procedure: The effect of the peptides on cellular metabolism can be assessed using an assay of ATP levels in cultured cells such as mouse myoblast cells. Peptides were initially prepared as 10 mM stock in DMSO, diluted to 1 mM in H2O, and used at a final concentration of 10 μM (0.1% DMSO). […] Lovastatin was prepared as 10 mM stock in 70% Ethanol and used at final concentration of 10 μM containing 0.1% DMSO. CellTiter-Glo® Assay kit was purchased from Promega (Madison, Wis.). […] C2C12 cells were grown in DMEM medium supplemented with 20% FBS with 100 IU/ml penicillin and 100 μg/ml streptomycin. […] C2C12 cells were seeded at 800 cells per well on 96-well plates. […] ATP levels were determined using a CellTiter-Glo Assay kit according to the manufacturer's instructions. Luminescence for each sample well on the plate was measured using a Cytation 3 plate reader (BioTek, Winooski, Vt.). Activity was calculated relative to 0.1% DMSO treated control. The relative standard deviation of the result for the 0.1% DMSO treated control was <5%. […] ATP levels for treatment with lovastatin (10 μM) were <50% of the 0.1% DMSO treated control value.

C2C12 cells [8] = assay: Cell proliferation in C2C12 cells (Cyquant DNA dye binding); type: cell-based, mouse; details: lovastatin 10 μM, growth arrest control
Procedure: The effect of the peptides on cell proliferation was assessed using a DNA dye binding assay in cultured cells such as mouse myoblast cells. Peptides were initially prepared as 10 mM stock in DMSO, diluted to 1 mM in H2O, and added at a final concentration of 10 μM (0.1% DMSO). Lovastatin was used as a growth arrest control at final concentration of 10 μM. […] C2C12 cells were grown in DMEM supplemented with 20% FBS with 100 IU/ml penicillin and 100 μg/ml streptomycin. […] C2C12 cells were seeded at 800 cells per well on 96-well plates. […] Cell proliferation was determined using Cyquant Direct Nucleic Acid Stain (Thermo Fisher Scientific, Waltham, Mass.) according to the manufacturer's instructions. Fluorescence for each sample well on the plate was measured using a Cytation 3 plate reader at Ex/Em=495/535 nm (BioTek, Winooski, Vt.). Activity was calculated relative to 0.1% DMSO untreated control. The relative standard deviation for the lovastatin control was <27%. The cell proliferation for the lovastatin control was <25% of the value for untreated control.

[9] = 5 mg/kg/dose QD intraperitoneal, 10 days
[10] = staurosporine 10 μM, positive control
[11] = 5 mg/kg/dose BID intraperitoneal, 8 days

2 (MRRIIGIVFQCLCGL) [compound 2]
MTS Assay, Percent of Control Activity (MDA-MB-231 cells [1]; 72 hours, relative to DMSO control, concentration not given): 79% | Free Fatty Acid Levels, Percent of Control Value (3T3-L1 adipocytes): 97% | Caspase 3/7 Activity, Percent of Control Activity (MDA-MB-231 cells [2]; peptide 10 μM, 18 hours, relative to DMSO control): 62% | MTS Assay, Percent of Control Activity (MCF-7 cells; peptide 10 μM, 72 hours, relative to DMSO control): 67%

RRMMGMVEQSLCG(dA) (RRMMGMVEQSLCG[dA]) [SEQ ID NO: 38]
Difference from Vehicle Control: Decrease from Baseline in Blood Glucose (Male DIO mice; [9]): -24.1 mg/dL | Difference from Vehicle Control: Decrease from Baseline in Body Weight (Male DIO mice; [9]): −3.12%

4 (RRIIGIVFQCLCG) [compound 4]
Free Fatty Acid Levels, Percent of Control Value (3T3-L1 adipocytes): 100%

insulin [reference compound]
Free fatty acid levels, % of isoproterenol control value (3T3-L1 mouse adipocytes [3]): < 5% | Free fatty acid levels, % of isoproterenol control value (3T3-L1 adipocytes; insulin 100 nM, positive control): < 5% | Free fatty acid levels, % of isoproterenol control value (3T3-L1 mouse adipocytes [4]): < 5% | Glucose levels, % of untreated control value (H4-IIE cells): 20-50%

CN[C@@H]1C[C@H]2O[C@@](C)([C@@H]1OC)n1c3ccccc3c3c4c(c5c6ccccc6n2c5c31)C(=O)NC4 [staurosporine, reference compound]
Cell viability, % of DMSO control value (MDA-MB-231 cells [1]; [10]): 3% | Caspase 3/7 activity, % of background-corrected DMSO control value (C2C12 cells [5]): 670% | Caspase activity, % of background-corrected DMSO control value (MDA-MB-231 cells [2]; staurosporine 0.05 nM, positive control): 130% | Cell viability, % of background corrected DMSO control value (MCF-7 cells; [10]): < 5%

C[S+]([O-])CCCCN=C=S (stereo not shown) [sulforaphane, reference compound]
ROS level in the presence of TBHP, % of TBHP control (C2C12 cells [6]): 52%

RRMMGMVFQCLCG(dA) (RRMMGMVFQCLCG[dA]; cysteine pairing not given here) [SEQ ID NO: 8]
Difference from Vehicle Control: Decrease from Baseline in Blood Glucose (Male DIO mice; [11]): -14.3 mg/dL | Difference from Vehicle Control: Decrease from Baseline in Body Weight (Male DIO mice; [11]): −5.66% | Difference from Vehicle Control: Decrease from Baseline in Fat Mass (Male DIO mice; [11]): -2.15 g

(PEG12)KRRIIGIVFQCLCG(dA) ([PEG12(3)]KRRIIGIVFQCLCG[dA]; cysteine pairing not given here) [SEQ ID NO: 42]
Difference from Vehicle Control: Decrease from Baseline in Blood Glucose (Male DIO mice; [9]): -10.7 mg/dL | Difference from Vehicle Control: Decrease from Baseline in Body Weight (Male DIO mice; [9]): −2.94%

RRMMGMVFQSLCG(dA) (RRMMGMVFQSLCG[dA]) [SEQ ID NO: 15]
Difference from Vehicle Control: Decrease from Baseline in Blood Glucose (Male DIO mice; [9]): -3.38 mg/dL | Difference from Vehicle Control: Decrease from Baseline in Body Weight (Male DIO mice; [9]): −4.97% | Difference from Vehicle Control: Decrease from Baseline in Fat Mass (Male DIO mice; [9]): -2.19 g

5 (RRIIGIVFQCLC) [compound 5]
Free Fatty Acid Levels, Percent of Control Value (3T3-L1 adipocytes): 115%

CC[C@H](C)C(=O)O[C@H]1C[C@@H](C)C=C2C=C[C@H](C)[C@H](CC[C@@H]3C[C@@H](O)CC(=O)O3)[C@H]21 [lovastatin, reference compound]
ATP levels, % of 0.1% DMSO treated control value (C2C12 cells [7]): < 50% | Cell proliferation, % of value for untreated control (C2C12 cells [8]): < 25%

(PEG12)KRRMMGMVFQCLCG(dA) (KRRMMGMVFQCLCGA; N-terminal PEG12; C-terminal D-alanine; (1)..(1) PEG12; (15)..(15) d-Ala) [SEQ ID NO: 20]
Difference from Vehicle Control: Decrease from Baseline in Blood Glucose (Male DIO mice; [9]): -0.75 mg/dL | Difference from Vehicle Control: Decrease from Baseline in Body Weight (Male DIO mice; [9]): −3.59% | Difference from Vehicle Control: Decrease from Baseline in Fat Mass (Male DIO mice; [9]): -1.78 g

3 (RRIIGIVFQCLCGL) [compound 3]
Free Fatty Acid Levels, Percent of Control Value (3T3-L1 adipocytes): 89%
